# Test results reported in publication PMC8405091, “Microwave-assisted Phospha-Michael addition reactions in the 13α-oestrone series and in vitro antiproliferative properties” (Journal of Enzyme Inhibition and Medicinal Chemistry, 2021).
# Read-outs that look alike come from different tables or passages of the source.
# Key:
# [1] = tested on: UPCI-SCC-131 cells; experiment: MTT antiproliferative assay, UPCI-SCC-131; assay type: cell-based, human; conditions: for IC50: UPCI-SCC-131, 72 h, read-out: calculated IC50 value
# Procedure: (§1) The antiproliferative properties of the newly synthesized compounds (9–20) and their starting materials (4 and 5) were determined on a panel of human adherent cancer cell lines. MCF-7, MDA-MB-231 and T47D were isolated from breast cancers differing in biochemical background, while A2780 cells were isolated from ovarian cancer. HeLa and SiHa are cervical cancer cell lines positive for HPV-18 and HPV-16, respectively, while C33-A cervical cancer cells are negative for HPV. Moreover, two oropharyngeal cancer cell lines were also utilized: the HPV-negative UPCI-SCC-131 and HPV-16 positive UPCI-SCC-154. The cancer selectivity of compounds was tested on the non-cancerous mouse embryo fibroblast cell line NIH/3T3. All cell lines were purchased from European Collection of Cell Cultures (ECCAC, Salisbury, UK) exception for SiHa and C33-A (American Tissue Culture Collection, Manassas, VA, USA) and HN-SCC-131 and UPCI-SCC-154 (German Collection of Microorganisms and Cell Cultures GmbH, Braunschweig, Germany). Cells were cultivated in minimal essential medium supplemented with 10% fetal bovine serum, 1% non-essential amino acids and an antibiotic–antimycotic mixture. The medium of oropharyngeal cancer cells additionally contained 2.0 mM L-glutamine. All media and supplements were obtained from Lonza Group Ltd., Basel, Switzerland. Near-confluent cancer cells were seeded onto a 96-well microplate at a density of 5,000 cells/well, except for C33-A which were seeded at 10,000/well. After overnight standing, new medium containing the tested compounds at 10 and 30 µM final concentration was added. After incubation for 72 h at 37 °C in humidified air containing 5% CO2, the living cells were assayed by the addition of 20 μL of 5 mg/ml 3-(4,5-dimethylthiazol-2-yl)-2,5-diphenyltetrazolium bromide (MTT) solution. MTT was converted by intact mitochondrial reductase and precipitated as purple crystals during a 4-h contact period. The medium was next removed and the precipitated formazan crystals were dissolved in 100 μL of DMSO during a 60-min period of shaking at 37 ^оC.
# (§2) All in vitro experiments were carried out twice with five parallels. Stock solutions of the tested substances (10 mM) were prepared in DMSO. […] Cisplatin (Ebewe Pharma GmbH, Unterach, Austria) was used as positive control.
# [2] = tested on: non-cancerous mouse embryo fibroblast (NIH/3T3) cells; experiment: MTT assay on non-cancerous fibroblasts (tumour selectivity); assay type: cell-based; conditions: for IC50: NIH/3T3, 72 h, read-out: calculated IC50 value
# Procedure: as §1, §2
# [3] = tested on: A2780 cells; experiment: MTT antiproliferative assay, A2780; assay type: cell-based, human; conditions: for IC50: A2780, 72 h, read-out: calculated IC50 value
# Procedure: as §1, §2
# [4] = tested on: MCF-7 cells; experiment: MTT antiproliferative assay, MCF-7; assay type: cell-based, human; conditions: for IC50: MCF-7, 72 h, read-out: calculated IC50 value
# Procedure: as §1, §2
# [5] = tested on: UPCI-SCC-154 cells; experiment: MTT antiproliferative assay, UPCI-SCC-154; assay type: cell-based, human; conditions: for IC50: UPCI-SCC-154, 72 h, read-out: calculated IC50 value
# Procedure: as §1, §2
# [6] = tested on: T47D cells; experiment: MTT antiproliferative assay, T47D; assay type: cell-based, human; conditions: 72 h; for IC50: read-out: calculated IC50 value
# Procedure: as §1, §2
# [7] = tested on: HeLa cells; experiment: MTT antiproliferative assay, HeLa; assay type: cell-based, human; conditions: 72 h; for IC50: read-out: calculated IC50 value
# Procedure: as §1, §2
# [8] = tested on: C33-A cells; experiment: MTT antiproliferative assay, C33-A; assay type: cell-based, human; conditions: C33-A, 72 h; for IC50: read-out: calculated IC50 value
# Procedure: as §1, §2
# [9] = tested on: MDA-MB-231 cells; experiment: MTT antiproliferative assay, MDA-MB-231; assay type: cell-based, human; conditions: for IC50: MDA-MB-231, 72 h, read-out: calculated IC50 value
# Procedure: as §1, §2
# [10] = tested on: SiHa cells; experiment: MTT antiproliferative assay, SiHa; assay type: cell-based, human; conditions: 72 h; for IC50: read-out: calculated IC50 value
# Procedure: as §1, §2
# [11] = Homo sapiens, 10 μM, read-out: Growth inhibition, % ± SEM
# [12] = Homo sapiens, 30 μM, read-out: Growth inhibition, % ± SEM
smiles,measurement,setting,value
"N.N.[Cl][Pt][Cl] [CIS, Cisplatin, reference compound]",Growth inhibition; % ± SEM,"[1]; UPCI-SCC-131, 10 μM, 72 h",95.63 ± 1.49%
same,Growth inhibition; % ± SEM,"[1]; UPCI-SCC-131, 30 μM, 72 h",95.09 ± 1.57%
same,IC50,[1],1.22 µM
same,Growth inhibition; % ± SEM,"[2]; NIH/3T3, 10 μM, 72 h",76.74 ± 1.26%
same,Growth inhibition; % ± SEM,"[2]; NIH/3T3, 30 μM, 72 h",96.90 ± 0.25%
same,IC50,[2],4.73 µM
same,Growth inhibition; % ± SEM,"[3]; A2780, 10 μM, 72 h",83.6 ± 1.2%
same,Growth inhibition; % ± SEM,"[3]; A2780, 30 μM, 72 h",95.0 ± 0.3%
same,IC50,[3],1.3 µM
same,Growth inhibition; % ± SEM,"[4]; MCF-7, 10 μM, 72 h",66.91 ± 1.81%
same,Growth inhibition; % ± SEM,"[4]; MCF-7, 30 μM, 72 h",96.80 ± 0.35%
same,IC50,[4],5.78 µM
same,Growth inhibition; % ± SEM,"[5]; UPCI-SCC-154, 10 μM, 72 h",87.40 ± 1.72%
same,Growth inhibition; % ± SEM,"[5]; UPCI-SCC-154, 30 μM, 72 h",92.72 ± 1.67%
same,IC50,[5],1.29 µM
same,Growth inhibition; % ± SEM,[6]; 10 μM,40.41 ± 1.25%
same,Growth inhibition; % ± SEM,[6]; 30 μM,56.84 ± 1.16%
same,IC50,[6],19.2 µM
same,Growth inhibition; % ± SEM,[7]; 10 μM,42.61 ± 2.33%
same,Growth inhibition; % ± SEM,[7]; 30 μM,99.93 ± 0.26%
same,IC50,[7],12.4 µM
same,Growth inhibition; % ± SEM,[8]; 10 μM,85.98 ± 1.05%
same,Growth inhibition; % ± SEM,[8]; 30 μM,98.66 ± 0.21%
same,IC50,[8],4.13 µM
same,Growth inhibition; % ± SEM,"[9]; MDA-MB-231, 10 μM, 72 h",– (Inhibition values <20% are not presented.)
same,Growth inhibition; % ± SEM,"[9]; MDA-MB-231, 30 μM, 72 h",71.47 ± 1.20%
same,IC50,[9],19.1 µM
same,Growth inhibition; % ± SEM,[10]; 10 μM,88.64 ± 0.50%
same,Growth inhibition; % ± SEM,[10]; 30 μM,90.18 ± 1.78%
same,IC50,[10],7.84 µM
C=C1C[C@H]2[C@@H]3CCc4cc(OCc5ccccc5)ccc4[C@H]3CC[C@@]2(C)C1=O [Compound 5],inhibition at 10 µM,"[1]; Homo sapiens, UPCI-SCC-131, 10 μM, 72 h, read-out: Growth inhibition, % ± SEM",99.54 ± 0.33%
same,inhibition at 30 µM,"[1]; Homo sapiens, UPCI-SCC-131, 30 μM, 72 h, read-out: Growth inhibition, % ± SEM",99.94 ± 0.44%
same,IC50,[1]; Homo sapiens,2.38 µM
same,inhibition at 10 µM,"[2]; Mus musculus, NIH3T3, NIH/3T3, 10 μM, 72 h, read-out: Growth inhibition, % ± SEM",100.8 ± 0.16%
same,inhibition at 30 µM,"[2]; Mus musculus, NIH3T3, NIH/3T3, 30 μM, 72 h, read-out: Growth inhibition, % ± SEM",100.3 ± 0.25%
same,IC50,"[2]; Mus musculus, NIH3T3",2.74 µM
same,IC50,[3]; Homo sapiens,6.7 µM
same,inhibition at 10 µM,"[3]; Homo sapiens, A2780, 10 μM, 72 h, read-out: Growth inhibition, % ± SEM",94.8 ± 2.13%
same,inhibition at 30 µM,"[3]; Homo sapiens, A2780, 30 μM, 72 h, read-out: Growth inhibition, % ± SEM",100.9 ± 0.18%
same,inhibition at 10 µM,"[4]; Homo sapiens, MCF7, MCF-7, 10 μM, 72 h, read-out: Growth inhibition, % ± SEM",99.7 ± 0.43%
same,inhibition at 30 µM,"[4]; Homo sapiens, MCF7, MCF-7, 30 μM, 72 h, read-out: Growth inhibition, % ± SEM",100.6 ± 0.31%
same,IC50,"[4]; Homo sapiens, MCF7",3.35 µM
same,inhibition at 10 µM,"[5]; Homo sapiens, UPCI-SCC-154, 10 μM, 72 h, read-out: Growth inhibition, % ± SEM",96.4 ± 0.89%
same,inhibition at 30 µM,"[5]; Homo sapiens, UPCI-SCC-154, 30 μM, 72 h, read-out: Growth inhibition, % ± SEM",100.3 ± 0.82%
same,IC50,[5]; Homo sapiens,4.5 µM
same,inhibition at 10 µM,[6]; [11],100.2 ± 0.28%
same,inhibition at 30 µM,[6]; [12],101.3 ± 0.47%
same,IC50,[6]; Homo sapiens,3.47 µM
same,inhibition at 10 µM,[7]; [11],75.1 ± 3.73%
same,inhibition at 30 µM,[7]; [12],99.65 ± 0.25%
same,IC50,[7]; Homo sapiens,6.99 µM
same,inhibition at 10 µM,"[8]; Homo sapiens, C-33-A, 10 μM, read-out: Growth inhibition, % ± SEM",93.9 ± 2.56%
same,inhibition at 30 µM,"[8]; Homo sapiens, C-33-A, 30 μM, read-out: Growth inhibition, % ± SEM",100 ± 0.23%
same,IC50,"[8]; Homo sapiens, C-33-A",3.75 µM
same,IC50,[9]; Homo sapiens,4.07 µM
same,inhibition at 10 µM,"[9]; Homo sapiens, MDA-MB-231, 10 μM, 72 h, read-out: Growth inhibition, % ± SEM",97.2 ± 1.46%
same,inhibition at 30 µM,"[9]; Homo sapiens, MDA-MB-231, 30 μM, 72 h, read-out: Growth inhibition, % ± SEM",98.57 ± 0.89%
same,inhibition at 10 µM,[10]; [11],98.98 ± 0.26%
same,inhibition at 30 µM,[10]; [12],99.97 ± 0.42%
same,IC50,[10]; Homo sapiens,2.3 µM
